Drawing on PubChem BioAssay (NCI), this text covers TGI and GI50 for 16 molecules.

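Compound exposure: 48 hours, 5 concentrations, 96-well plates. GI50: concentration for 50% inhibition of growth. TGI denotes the concentration required for complete inhibition of growth.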 A value given as a limit tells only on which side of the number the result lay.

Some test systems named below: NCI-H23 lung; M14 melanoma; MDA-MB-231 breast; UACC-257 melanoma; SF-539 CNS; RXF 393 renal; SK-MEL-28 melanoma; HOP-92 NSCLC; HOP-62 NSCLC; ACHN renal; CCRF-CEM leukemia.
Experiment in all cases: DTP human tumour cell line panel, 48 h

Turning to `CCOC(=O)C1=C(C)OC2(O)C=CC(O)=C3C(=O)N(c4ccccc4)C(=O)C312` (configuration not stated), the total growth inhibition concentration (TGI) with NCI-H23 lung was greater than 100 µM; in the test on M14 melanoma, greater than 100 µM; with MDA-MB-231 breast it was greater than 100 µM; with UACC-257 melanoma, 99.4 µM; in the test on SF-539 CNS it was 68.2 µM; in the test with RXF 393 renal, 47.7 µM. The concentration for total growth inhibition (TGI) with SK-MEL-28 melanoma was 49.7 µM; with HOP-92 NSCLC, greater than 100 µM; in the test with HOP-62 NSCLC it was greater than 100 µM; in the test on ACHN renal it was greater than 100 µM.
Consider `NN(CC(=O)O)CC(=O)O`, for which the TGI with NCI-H23 lung, with M14 melanoma, in the test with MDA-MB-231 breast, in the test on UACC-257 melanoma, in the test on SF-539 CNS and in the test with CCRF-CEM leukemia was greater than 100 µM throughout. In addition, the total growth inhibition concentration (TGI) in the test with SK-MEL-28 melanoma, with HOP-62 NSCLC and in the test on ACHN renal was greater than 100 µM each time.
For `CN1CCc2[nH]c3ccccc3c2C1`, the total growth inhibition concentration (TGI) with NCI-H23 lung, in the test on UACC-257 melanoma, in the test with SF-539 CNS, in the test with RXF 393 renal, with CCRF-CEM leukemia and in the test with SK-MEL-28 melanoma was greater than 100 µM throughout. Besides, the TGI in the test on HOP-92 NSCLC and in the test with HOP-62 NSCLC was greater than 100 µM throughout.
In the case of `Nc1ncnc2nc[nH]c12`, the total growth inhibition concentration (TGI) with NCI-H23 lung is greater than 250 µM; in the test with UACC-257 melanoma, greater than 250 µM; in the test on SF-539 CNS, greater than 250 µM; with RXF 393 renal, 88 µM; in the test on CCRF-CEM leukemia it was greater than 250 µM; in the test on SK-MEL-28 melanoma it was greater than 250 µM. Besides, the TGI with HOP-92 NSCLC and with HOP-62 NSCLC was greater than 250 µM throughout. In addition, the GI50 in the test on CCRF-CEM leukemia was 32.4 µM.
For `COc1cc2c(c(O)c1OC)-c1c(cc(OC)c(OC)c1OC)CC(C)C(C)C2` (configuration not stated), the TGI in the test on NCI-H23 lung, in the test with M14 melanoma, in the test on MDA-MB-231 breast, in the test on UACC-257 melanoma, with SF-539 CNS and in the test on RXF 393 renal was greater than 100 µM each time. The TGI with CCRF-CEM leukemia is 62.1 µM; in the test on SK-MEL-28 melanoma, greater than 100 µM; with HOP-92 NSCLC, greater than 100 µM; in the test with HOP-62 NSCLC, greater than 100 µM; in the test with ACHN renal it was greater than 100 µM.
For `O=C([O-])C[n+]1ccccc1`, the concentration for total growth inhibition (TGI) with NCI-H23 lung, with M14 melanoma, in the test with MDA-MB-231 breast, with UACC-257 melanoma, in the test on SF-539 CNS and with RXF 393 renal was greater than 100 µM each time. Moreover, the TGI in the test with CCRF-CEM leukemia, with SK-MEL-28 melanoma, in the test with HOP-92 NSCLC, in the test with HOP-62 NSCLC and in the test with ACHN renal was greater than 100 µM throughout.
For `CC(CCN)(CCN)[N+](=O)[O-]`, the TGI with NCI-H23 lung, in the test on M14 melanoma, in the test with MDA-MB-231 breast, in the test on UACC-257 melanoma, with SF-539 CNS and with RXF 393 renal was greater than 100 µM in each case. Further, the TGI with CCRF-CEM leukemia, in the test with SK-MEL-28 melanoma, in the test with HOP-92 NSCLC, in the test with HOP-62 NSCLC and in the test with ACHN renal was greater than 100 µM in each case.
Take `CN(C)CCCSc1nc2ccccc2[nH]1`: the concentration for total growth inhibition (TGI) in the test on NCI-H23 lung, in the test with M14 melanoma, with MDA-MB-231 breast, in the test with UACC-257 melanoma, in the test with RXF 393 renal and with SK-MEL-28 melanoma was greater than 100 µM in each case. In addition, the total growth inhibition concentration (TGI) in the test on HOP-92 NSCLC, with HOP-62 NSCLC and with ACHN renal was greater than 100 µM each time.
On to `CCCCCCCCCCCCCCCCCCOc1ccccc1CC(=O)OCC[N+]1(C)CCCCC1`, for which the GI50 in the test on NCI-H23 lung is 1.8 µM; in the test on M14 melanoma it was 2.52 µM; in the test with MDA-MB-231 breast, 1.83 µM; in the test with UACC-257 melanoma it was 2.79 µM; in the test on SF-539 CNS, 1.97 µM; with CCRF-CEM leukemia it was 1.96 µM. Also, the GI50 is 2.51 µM in the test with SK-MEL-28 melanoma, 1.32 µM in the test on HOP-92 NSCLC and 5.01 µM with ACHN renal. Moreover, the TGI was 4.25 µM in the test with NCI-H23 lung; 6.58 µM with M14 melanoma; 3.89 µM in the test with MDA-MB-231 breast; 7.91 µM in the test with UACC-257 melanoma; 3.89 µM in the test on SF-539 CNS; 4.63 µM with CCRF-CEM leukemia. In addition, the figures for the total growth inhibition concentration (TGI) in the test on SK-MEL-28 melanoma, in the test on HOP-92 NSCLC and in the test on ACHN renal were 6.33 µM, 3.35 µM and 25.8 µM, respectively.
With `O=C(O)c1cc([N+](=O)[O-])cc2c(=O)c3cnccc3[nH]c12`, the TGI with NCI-H23 lung, in the test on M14 melanoma, in the test with MDA-MB-231 breast, with RXF 393 renal, with CCRF-CEM leukemia and in the test with SK-MEL-28 melanoma was greater than 100 µM throughout. The molecule further had a TGI with HOP-62 NSCLC greater than 100 µM.
On to `CN1CCOC(c2ccc(Cl)cc2)O1` (configuration not stated), for which the TGI in the test with NCI-H23 lung, in the test with M14 melanoma, in the test on MDA-MB-231 breast, in the test with UACC-257 melanoma, with SF-539 CNS and in the test with RXF 393 renal was greater than 100 µM throughout. In addition, the total growth inhibition concentration (TGI) with CCRF-CEM leukemia, with SK-MEL-28 melanoma, with HOP-92 NSCLC, in the test with HOP-62 NSCLC and in the test on ACHN renal was greater than 100 µM in each case.
With `O=C(Nc1ccc(Cl)cc1)c1cc2cc(N=Nc3ccccc3Cl)ccc2oc1=O`, the TGI in the test with NCI-H23 lung was 34.5 µM; in the test with M14 melanoma it was 55 µM; in the test on UACC-257 melanoma, 68.2 µM; in the test with SF-539 CNS it was 31.3 µM; in the test with RXF 393 renal it was greater than 100 µM; in the test on CCRF-CEM leukemia, 5.38 µM. In addition, the TGI with SK-MEL-28 melanoma was 55.7 µM; with HOP-92 NSCLC it was 38.8 µM; in the test with HOP-62 NSCLC, 61.9 µM; in the test with ACHN renal it was greater than 100 µM.
With `CN(CCCCCl)P(=O)(OCc1ccc([N+](=O)[O-])o1)OC[C@H]1O[C@@H](n2cc(F)c(=O)[nH]c2=O)C[C@@H]1O` (some centres not stated), the TGI in the test with NCI-H23 lung was 20.5 µM; in the test with M14 melanoma, 20 µM; in the test on MDA-MB-231 breast, 34.2 µM; in the test on UACC-257 melanoma, greater than 68 µM; with SF-539 CNS, 0.217 µM; in the test on RXF 393 renal, 17.4 µM. Moreover, the total growth inhibition concentration (TGI) in the test with CCRF-CEM leukemia was 20.7 µM; with SK-MEL-28 melanoma it was greater than 61.3 µM; in the test with HOP-92 NSCLC, 20.3 µM; in the test on HOP-62 NSCLC, 25.6 µM; with ACHN renal, greater than 100 µM.
On to `CCOc1ccc(NC(=O)C(=O)CC(=O)c2sc(NNC(C)=O)nc2C)cc1`, for which the TGI with NCI-H23 lung, with M14 melanoma, in the test on UACC-257 melanoma, in the test on SF-539 CNS, with RXF 393 renal and in the test with CCRF-CEM leukemia was greater than 100 µM each time. Besides, the concentration for total growth inhibition (TGI) in the test with SK-MEL-28 melanoma, with HOP-92 NSCLC, in the test with HOP-62 NSCLC and with ACHN renal was greater than 100 µM in each case.
With `C[C@]12C=CC(=O)C=C1CC[C@@H]1[C@@H]2CC[C@]2(C)OC(=O)CC[C@@H]12`, the total growth inhibition concentration (TGI) with NCI-H23 lung was 499 µM; in the test on M14 melanoma it was greater than 500 µM; with MDA-MB-231 breast, greater than 500 µM; in the test on UACC-257 melanoma it was greater than 500 µM; in the test on SF-539 CNS, greater than 476 µM; with RXF 393 renal, greater than 485 µM. Moreover, the TGI is greater than 500 µM in the test with CCRF-CEM leukemia; greater than 500 µM in the test with SK-MEL-28 melanoma; 500 µM in the test with HOP-92 NSCLC; greater than 471 µM in the test on HOP-62 NSCLC; greater than 500 µM in the test with ACHN renal.
With `CC(C)=CCC/C(C)=C/CC/C(C)=C/CC/C(C)=C/C=C/C=C(\C)CC/C=C(\C)CC/C=C(\C)CCC=C(C)C`, the concentration for total growth inhibition (TGI) in the test on NCI-H23 lung, in the test with M14 melanoma, with MDA-MB-231 breast, in the test with UACC-257 melanoma, with SF-539 CNS and in the test with RXF 393 renal was greater than 100 µM in each case. In addition, the concentration for total growth inhibition (TGI) was 59.8 µM in the test with CCRF-CEM leukemia; greater than 100 µM in the test with SK-MEL-28 melanoma; greater than 75.5 µM in the test with HOP-92 NSCLC; greater than 100 µM with HOP-62 NSCLC; 53 µM in the test with ACHN renal.

Broadly, the TGI is the concentration at which net growth stops. Usually GI50 stands for the concentration that inhibits growth by half.
